Data on 2 molecules can be found in publication PMC5357639 (Frontiers in Chemistry, 2017).

Structures are written as SMILES. “And” between values parts separate entries of the source, which are not always exact repeats. Identical values can stand only once. Where a SMILES comes first, the peptide text is derived from it. The star is where a group is joined. Orn(α-tetramethylguanidino) = CN(C)C(=N[C@@H](CCCN)C(=O)*)N(C)C Bounds are passed on as bounds.

The nature of one data set: in vitro. As to conditions: female, CD-1, mouse, cerebrospinal or other body fluid. It counts as in vitro ADME, CD-1 mice. The method, then: Peritoneal lavage (1.5–2 mL) were collected from three euthanized female CD-1 mice (14 weeks, 32–33 g) after injecting sterile PBS intraperitoneal (4 mL). Peptides were incubated with aliquots (95 μL) of fresh lavage (75 μg/mL, 37°C, 750 rpm). After 0, 30, and 60 min trichloroacetic acid (25 μL, 15% w/v) was added to the samples to precipitate proteins, incubated on ice (10 min), and centrifuged (5 min, 12.400 × g). Supernatants were neutralized with sodium hydroxide (1 mol/L) and analyzed by RP-HPLC using a Poroshell 120 SB-C18-column (2.1 mm internal diameter, 100 mm length, 2.7 μm particle size, 12 nm pore size, Agilent Technologies Inc., Santa Clara, CA, USA) at 60°C and an aqueous acetonitrile gradient containing trifluoroacetic acid (0.1%, v/v). Absorbance was recorded at a wavelength of 214 nm.

In the next data set the test system is E. coli ATCC 25922. As to conditions: E. coli ATCC 25922; ref Czihal et al., 2012; Berthold et al., 2013; cited from earlier work. The source says: Antimicrobial peptides (AMPs) are considered as promising alternatives to common antibiotics that threateningly lose their therapeutic potentials against multidrug-resistant pathogens (Fox, [2013]; Wang et al., [2015]). In contrast to approved therapeutic peptide hormones, antimicrobial peptides have to be administered at much higher doses, which may amplify general drawbacks of peptide therapeutics. For example, the diabetes peptide drugs exenatide and pramlintide are given at daily doses of 20 μg (Byetta®; ~0.5 μg/kg) and 120 μg (Symlin®; ~1.5 μg/kg; Heine et al., [2005]; Hay et al., [2015]) ... || Apidaecin analogs Api88 and Api137 are similarly active against Gram-negative bacteria with a tendency of higher activity of Api88 against K. pneumoniae (Czihal et al., [2012]; Berthold et al., [2013]). However, Api88 carries a C-terminal amide that is responsible for its very fast proteolytic cleavage in serum, the supernatant obtained after complete coagulation and centrifugation of blood. The in vitro serum stability assay, which is an important in vitro criterion to select therapeutic peptides for systemic applications, yielded very short half-life times of 5 min for Api88, which indicate ...

Another data set can be described thus: in vivo. More on the design: species or system CD-1 mice. The note with it: iv; for level at 5 min: female, CD-1, mouse, 5 mg/kg; for Time within which peptide is cleared: mouse. The source says:
A protocol to quantify Api88, Api137, and their major metabolites was established analog to that of oncocin derivatives, reported recently (Schmidt et al., [2016]). Briefly, an Alliance® 2695 HPLC system was coupled online to an ESI-QqLIT-MS (4,000 QTRAP®) equipped with a TurboV™ ion-spray source and operated in positive ion MRM mode using the Analyst® 1.6 software. Separation was achieved on a Jupiter C18-column (internal diameter 1 mm, length 150 mm, particle size 5 μm, pore size 300 Å) at 55 °C using a linear 5-min gradient from 2.7 to 20.7% aqueous acetonitrile containing ammonium formate (26 mmol/L, pH 3.0). Further details about instrumentation, MRM optimization, and MS settings are provided as Supplementary Material (Tables S1–S4, Method M1).
Female CD-1 mice (20–23 g weight, 7 weeks) were injected intravenously (10 mL/kg) in the tail vein with peptides (0.5 g/L) dissolved in sterile saline (0.9%, w/v) corresponding to doses of 5 mg/kg body weight. Animals (n = 4 per time point and peptide) were euthanized 5, 10, 20, 40, and 60 min post-injection by carbon dioxide inhalation and exsanguination. For further details of sample preparation and recovery experiments see Supplementary Material (Methods M2, M3).
Method M1: M ultiple reaction monitoring (MRM) transitions for apidaecin peptides Peptides (1 µ g/ m L ) were dissolved inaqueous acetonitrile (25% or 60% v/ v) containing either formate buffer (26 mmol/ L, pH 2.6, 3.0, 3.3 or 3.9 ) or formic acid (0.1% v/v ) and infused (flow rate 5 µ L/min, PHD 2600 s yringe pump) into the ES I-Q q L IT -MS (4000 QTRAP®) to optimize buffer composition and MRM. Transitions were selected from the tandem mass spectra (MS/MS) and confirmed on an ESI-QqTOF-MS (QSTAR® pulsar I) providing higher mass resolutions and mass accuracies than the QTRAP ®. The settings for declustering potential (DP), collision potential (CE), and collision cell exit potential (CXP) were optimized by ramping the respective pot entials using the compound optimization tool of the Anal yst® software.
Method M2: Sample preparation
Frozen organs (5 per group) wer e homogenized in sterile PBS (500 µ L) containing Protease Inhibitor Mix M (1% v/v; SERVA Electrophoresis GmbH, Heidelberg, German y) using an Ultra-Turr ax ® T25 basic (IKA-Werke, Staufen, German y, rotational speed 21,500 min-1) for 1 min. […]
Limits of detection (LOD) and quantification (LOQ) corresponded to the lowest peptide concentrations in water, plasma, or homogenates of brain, liver , and kidney providing a peak height exceeding the noise in the retention time window at least threefol d (LOD) or ten times (LOQ). Recover y r ates o f SPE and matrix effects were determined b y the p eak areas of spiked

What is called share remaining is the share of the starting amount still present when the sample was taken. As a reminder, the MIC is the smallest concentration in the dilution series that meets the test's criterion for growth inhibition. Molecule `CC[C@H](C)[C@H](NC(=O)[C@H](Cc1ccc(O)cc1)NC(=O)[C@@H](NC(=O)[C@@H]1CCCN1C(=O)[C@H](CCCNC(=N)N)NC(=O)[C@H](CC(N)=O)NC(=O)[C@H](CC(N)=O)NC(=O)[C@H](CCCN)N=C(N(C)C)N(C)C)C(C)C)C(=O)N1CCC[C@H]1C(=O)N[C@@H](CCCNC(=N)N)C(=O)N1CCC[C@H]1C(=O)N[C@@H](CCCNC(=N)N)C(=O)N1CCC[C@H]1C(=O)N1CCC[C@H]1C(=O)N[C@@H](Cc1c[nH]cn1)C(=O)N1CCC[C@H]1C(=O)N[C@@H](CCCNC(=N)N)C(=O)N[C@@H](CC(C)C)C(N)=O` [Api88] ({Orn(α-tetramethylguanidino)}-NNRPVYIPRPRPPHPRL-NH2) yielded an amount remaining at 1 h, 75 μg/mL in “in vitro” above 60%. In addition, the minimum inhibitory concentration (MIC) in the data set with E. coli ATCC 25922 is reported as ~ 4 μg/mL. For the same molecule, in “in vivo”, the level at 5 min worked out at 1000 ng/mL and the “Time within which peptide is cleared” value was ~ 60 min.
One may read the half-life as the time in which the quantity being followed falls by half. A low value points to rapid decline. In “in vitro”, `CC[C@H](C)[C@H](NC(=O)[C@H](Cc1ccc(O)cc1)NC(=O)[C@@H](NC(=O)[C@@H]1CCCN1C(=O)[C@H](CCCNC(=N)N)NC(=O)[C@H](CC(N)=O)NC(=O)[C@H](CC(N)=O)NC(=O)[C@H](CCCN)N=C(N(C)C)N(C)C)C(C)C)C(=O)N1CCC[C@H]1C(=O)N[C@@H](CCCNC(=N)N)C(=O)N1CCC[C@H]1C(=O)N[C@@H](CCCNC(=N)N)C(=O)N1CCC[C@H]1C(=O)N1CCC[C@H]1C(=O)N[C@@H](Cc1c[nH]cn1)C(=O)N1CCC[C@H]1C(=O)N[C@@H](CCCNC(=N)N)C(=O)N[C@@H](CC(C)C)C(=O)O` [Api137] ({Orn(α-tetramethylguanidino)}-NNRPVYIPRPRPPHPRL-OH) returned a half-life at 75 μg/mL of around 20 min. Further, in the data set on E. coli ATCC 25922, the MIC is 4 μg/mL and ~ 4 μg/mL. Also, in the data set “in vivo”, the level at 5 min is 400 ng/mL and the “Time within which peptide is cleared” value is given as ~ 60 min.
